Test results published in patent US11707442B2, “Antibacterial and antifungal compounds” (The General Hospital Corporation, priority 2015, dated 2023).
Converted amounts (≈) assume the structure as drawn. Where two headings read alike, the source gives them in different places.

Key:
A. baumannii = assay: MIC, broth microdilution; assay type: cell-based, Acinetobacter baumannii
Excerpt: (§1) Bacterial strains and growth conditions and persister isolation: methicillin-resistant S. aureus (MRSA) strain MW2 BAA-1707, vancomycin-resistant S. aureus strain VRS 1, 11 clinical S. aureus isolates, 8 clinical Enterococcus faecium isolates, Klebsiella pneumoniae WGLW2 (BEI Resources, Manassas, Va., USA), Acinetobacter baumannii ATCC 17978, Pseudomonas aeruginosa PA14, and Enterobacter aerogenes ATCC 13048 were used to test antimicrobial activity (See Table 1a). S. aureus and E. faecium strains were grown in tryptic soy broth (TSB) (BD, Franklin Lakes, N.J., USA) or brain-heart infusion (BHI) broth (BD, Franklin Lakes, N.J., USA), respectively at 37° C. at 225 rpm. K. pneumoniae, A. baumannii, P. aeruginosa, and E. aerogenes were grown in Luria Bertani (LB) broth (BD, Franklin Lakes, N.J., USA).
(§2) To test the bacterial MICs for compounds described herein, the total volume in each well was 100 μl of test compounds and bacterial cells in MH broth. […] The bacterial concentration was adjusted to an initial OD600 of 0.03. After incubation at 35° C. for 18 hrs, the absorbance was measured at 595 nm in accordance with CLSI document M07-A8. The MICs of antibiotics were determined by the standard microdilution method recommended by the Clinical and Laboratory Standards Institute.

E. aerogenes ATCC 13048 = assay: MIC, broth microdilution; assay type: cell-based, Enterobacter aerogenes
Excerpt: as §1, §2

S. aureus = assay: Minimal inhibitory concentration (MIC), broth microdilution; assay type: cell-based, Staphylococcus aureus
Excerpt: as §1, §2

[1] = test system: S. aureus MW2 (MRSA) in neutropenic mouse thigh; settings: previous study (Conlon 2013); cited from earlier work
P. aeruginosa = assay: MIC, broth microdilution; assay type: cell-based, Pseudomonas aeruginosa
Excerpt: as §1, §2

K. pneumonia WGLW2 = assay: MIC, broth microdilution; assay type: cell-based, Klebsiella pneumoniae
Excerpt: as §1, §2

E. faecium = assay: MIC, broth microdilution; assay type: cell-based, Enterococcus faecium; settings: for MIC: Enterococcus faecium
Excerpt: as §1, §2

[2] = test system: S. aureus persister cells (stationary phase); assay: Persister killing assay; assay type: cell-based, Staphylococcus aureus; settings: 4 μg/ml CD437 or CD1530 or 10 μg/ml gentamicin alone
Protocol: Persister killing assay. […] Persister cells of these 13 S. aureus strains were developed by growing cultures overnight to stationary phase at 37° C. at 225 rpm. The overnight cultures were washed three times with PBS and diluted to ˜10^7 CFU/ml with the same buffer, which is the same concentration as used in the killing kinetics assay described herein. 1 ml of the persister suspension containing appropriate concentrations of antibiotics was added to the wells of a 2 ml deep well assay block (Corning Costar 3960) and incubated at 37° C., with shaking at 225 rpm. At specific times, 50 μl samples were removed, serially diluted and spot-plated on TSA plates to enumerate the number of live cells. These experiments were conducted in triplicate.

`CN[C@H](CC(C)C)C(=O)N[C@H]1C(=O)N[C@@H](CC(N)=O)C(=O)N[C@H]2C(=O)N[C@H]3C(=O)N[C@H](C(=O)N[C@H](C(=O)O)c4cc(O)cc(O)c4-c4cc3ccc4O)[C@H](O)c3ccc(c(Cl)c3)Oc3cc2cc(c3O[C@@H]2O[C@H](CO)[C@@H](O)[C@H](O)[C@H]2O[C@H]2C[C@](C)(N)[C@H](O)[C@H](C)O2)Oc2ccc(cc2Cl)[C@H]1O` [Vancomycin, vancomycin] gave an MIC (A. baumannii; Acinetobacter baumannii, ATCC17978, read-out: Minimum inhibitory concentration) of over 64 µg/mL, an MIC (E. aerogenes ATCC 13048; Klebsiella aerogenes, ATCC13048, read-out: Minimum inhibitory concentration) of over 64 µg/mL and an MIC (S. aureus; Staphylococcus aureus, S. aureus MW2 mutant SP1-8 (graS)) of 0.5 µg/mL (≈ 0.345 µM). The MIC (S. aureus; Staphylococcus aureus, S. aureus MW2 mutant SP1-48 (graS, manA)) was 0.5 µg/mL (≈ 0.345 µM), the MIC (S. aureus; Staphylococcus aureus, S. aureus MW2 mutant SP1-74 (graS, manA, MW2474)) was 0.5 µg/mL (≈ 0.345 µM) and the MIC (S. aureus; Staphylococcus aureus, S. aureus MW2 mutant SP1-100 (graS, manA, MW2474)) was 0.5 µg/mL (≈ 0.345 µM). For the same compound, the MIC (S. aureus; Staphylococcus aureus, S. aureus MW2 mutant SP2-13 (yjbH)) was 1 µg/mL (≈ 0.69 µM), the MIC (S. aureus; Staphylococcus aureus, S. aureus MW2 mutant SP2-52 (yjbH, dltB)) was 0.5 µg/mL (≈ 0.345 µM) and the MIC (S. aureus; Staphylococcus aureus, S. aureus MW2 mutant SP2-59 (yjbH, dltB, manA)) was 0.5 µg/mL (≈ 0.345 µM). It also gave an MIC (S. aureus; Staphylococcus aureus, S. aureus MW2 mutant SP2-65 (yjbH, dltB, manA, MW1685)) of 0.5 µg/mL (≈ 0.345 µM), an MIC (S. aureus; Staphylococcus aureus, S. aureus MW2 mutant SP2-100 (yjbH dltB, manA, MW1685)) of 0.5 µg/mL (≈ 0.345 µM) and an MIC (S. aureus; Staphylococcus aureus, S. aureus MW2 serial passage culture SP1-1 (no mutated gene)) of 1 µg/mL (≈ 0.69 µM). It also gave an MIC (S. aureus; Staphylococcus aureus, S. aureus MW2 serial passage culture SP2-1 (no mutated gene)) of 1 µg/mL (≈ 0.69 µM), an MIC (S. aureus; Staphylococcus aureus, read-out: Drug MIC, Staphylococcus aureus clinical isolate BF1 (Table 5)) of 2 µg/mL (≈ 1.38 µM) and an MIC (S. aureus; Staphylococcus aureus, read-out: Drug MIC, Staphylococcus aureus clinical isolate BF2 (Table 5)) of 2 µg/mL (≈ 1.38 µM). The MIC (S. aureus; Staphylococcus aureus, read-out: Drug MIC, Staphylococcus aureus clinical isolate BF3 (Table 5)) was 4 µg/mL (≈ 2.76 µM), the MIC (S. aureus; Staphylococcus aureus, read-out: Drug MIC, Staphylococcus aureus clinical isolate BF4 (Table 5)) was 2 µg/mL (≈ 1.38 µM) and the MIC (S. aureus; Staphylococcus aureus, read-out: Drug MIC, Staphylococcus aureus clinical isolate BF5 (Table 5)) was 2 µg/mL (≈ 1.38 µM). It also gave an MIC (S. aureus; Staphylococcus aureus, read-out: Drug MIC, Staphylococcus aureus clinical isolate BF6 (Table 5)) of 2 µg/mL (≈ 1.38 µM), an MIC (S. aureus; Staphylococcus aureus, read-out: Drug MIC, Staphylococcus aureus clinical isolate BF7 (Table 5)) of 2 µg/mL (≈ 1.38 µM) and an MIC (S. aureus; Staphylococcus aureus, read-out: Drug MIC, Staphylococcus aureus clinical isolate BF8 (Table 5)) of 2 µg/mL (≈ 1.38 µM). It also gave an MIC (S. aureus; Staphylococcus aureus, read-out: Drug MIC, Staphylococcus aureus clinical isolate BF9 (Table 5)) of 2 µg/mL (≈ 1.38 µM), an MIC (S. aureus; Staphylococcus aureus, read-out: Drug MIC, Staphylococcus aureus clinical isolate BF10 (Table 5)) of 2 µg/mL (≈ 1.38 µM) and an MIC (S. aureus; Staphylococcus aureus, read-out: Drug MIC, Staphylococcus aureus clinical isolate BF11 (Table 5)) of 2 µg/mL (≈ 1.38 µM). The MIC (S. aureus; Staphylococcus aureus, read-out: Minimum inhibitory concentration, S. aureus BF1) was 1 µg/mL (≈ 0.69 µM), the MIC (S. aureus; Staphylococcus aureus, read-out: Minimum inhibitory concentration, S. aureus BF2) was 1 µg/mL (≈ 0.69 µM) and the MIC (S. aureus; Staphylococcus aureus, read-out: Minimum inhibitory concentration, S. aureus BF3) was 1 µg/mL (≈ 0.69 µM). It also gave an MIC (S. aureus; Staphylococcus aureus, read-out: Minimum inhibitory concentration, S. aureus BF4) of 0.5 µg/mL (≈ 0.345 µM), an MIC (S. aureus; Staphylococcus aureus, read-out: Minimum inhibitory concentration, S. aureus BF5) of 0.5 µg/mL (≈ 0.345 µM) and an MIC (S. aureus; Staphylococcus aureus, read-out: Minimum inhibitory concentration, S. aureus BF6) of 0.5 µg/mL (≈ 0.345 µM). The MIC (S. aureus; Staphylococcus aureus, read-out: Minimum inhibitory concentration, S. aureus BF7) was 0.5 µg/mL (≈ 0.345 µM), the MIC (S. aureus; Staphylococcus aureus, read-out: Minimum inhibitory concentration, S. aureus BF8) was 0.5 µg/mL (≈ 0.345 µM) and the MIC (S. aureus; Staphylococcus aureus, read-out: Minimum inhibitory concentration, S. aureus BF9) was 0.5 µg/mL (≈ 0.345 µM). For the same compound, the MIC (S. aureus; Staphylococcus aureus, read-out: Minimum inhibitory concentration, S. aureus BF10) was 0.5 µg/mL (≈ 0.345 µM), the MIC (S. aureus; Staphylococcus aureus, read-out: Minimum inhibitory concentration, S. aureus BF11) was 1 µg/mL (≈ 0.69 µM) and the MIC (S. aureus; Staphylococcus aureus, read-out: Minimum inhibitory concentration, S. aureus MW2) was 1 µg/mL (≈ 0.69 µM). The MIC (S. aureus; Staphylococcus aureus, read-out: Minimum inhibitory concentration, S. aureus VRS1) was over 64 µg/mL, the “reduction of MRSA CFUs in the deep-seated mouse thigh infection model” value [1] was “unable to significantly reduce” and the MIC (P. aeruginosa; Pseudomonas aeruginosa, PA14, read-out: Minimum inhibitory concentration) was over 64 µg/mL. The MIC (K. pneumonia WGLW2; Klebsiella pneumoniae, WGLW2, read-out: Minimum inhibitory concentration) was over 64 µg/mL, the MIC (E. faecium; read-out: Minimum inhibitory concentration, E. faecium C68) was 64 µg/mL (≈ 44.2 µM) and the MIC (E. faecium; read-out: Minimum inhibitory concentration, E. faecium D14) was 2 µg/mL (≈ 1.38 µM). For the same compound, the MIC (E. faecium; read-out: Minimum inhibitory concentration, E. faecium D24) was 1 µg/mL (≈ 0.69 µM), the MIC (E. faecium; read-out: Minimum inhibitory concentration, E. faecium D25) was 1 µg/mL (≈ 0.69 µM) and the MIC (E. faecium; read-out: Minimum inhibitory concentration, E. faecium D29) was 2 µg/mL (≈ 1.38 µM). For the same compound, the MIC (E. faecium; read-out: Minimum inhibitory concentration, E. faecium E007) was 1 µg/mL (≈ 0.69 µM), the MIC (E. faecium; read-out: Minimum inhibitory concentration, E. faecium WB213) was 16 µg/mL (≈ 11 µM) and the MIC (E. faecium; read-out: Minimum inhibitory concentration, E. faecium WC176) was 64 µg/mL (≈ 44.2 µM).

gentamicin showed a Minimum inhibitory concentration (A. baumannii; A. baumannii ATCC 17978) of 1 µg/mL, a Minimum inhibitory concentration (E. aerogenes ATCC 13048; E. aerogenes ATCC 13048) of 2 µg/mL and a Minimum inhibitory concentration (S. aureus; S. aureus BF1) of 1 µg/mL. For the same compound, the Minimum inhibitory concentration (S. aureus; S. aureus BF2) was 1 µg/mL, the Minimum inhibitory concentration (S. aureus; S. aureus BF3) was 1 µg/mL and the Minimum inhibitory concentration (S. aureus; S. aureus BF4) was 1 µg/mL. For the same compound, the Minimum inhibitory concentration (S. aureus; S. aureus BF5) was 1 µg/mL, the Minimum inhibitory concentration (S. aureus; S. aureus BF6) was 1 µg/mL and the Minimum inhibitory concentration (S. aureus; S. aureus BF7) was 1 µg/mL. The Minimum inhibitory concentration (S. aureus; S. aureus BF8) was 1 µg/mL, the Minimum inhibitory concentration (S. aureus; S. aureus BF9) was 1 µg/mL and the Minimum inhibitory concentration (S. aureus; S. aureus BF10) was 1 µg/mL. It also gave a Minimum inhibitory concentration (S. aureus; S. aureus BF11) of 1 µg/mL, a Minimum inhibitory concentration (S. aureus; S. aureus MW2) of 1 µg/mL and an MIC (S. aureus; S. aureus MW2 mutant SP1-8 (graS)) of 0.25 µg/mL. It also gave an MIC (S. aureus; S. aureus MW2 mutant SP1-48 (graS, manA)) of 0.25 µg/mL, an MIC (S. aureus; S. aureus MW2 mutant SP1-74 (graS, manA, MW2474)) of 0.25 µg/mL and an MIC (S. aureus; S. aureus MW2 mutant SP1-100 (graS, manA, MW2474)) of 0.25 µg/mL. For the same compound, the MIC (S. aureus; S. aureus MW2 mutant SP2-13 (yjbH)) was 1 µg/mL, the MIC (S. aureus; S. aureus MW2 mutant SP2-52 (yjbH, dltB)) was 0.25 µg/mL and the MIC (S. aureus; S. aureus MW2 mutant SP2-59 (yjbH, dltB, manA)) was 0.25 µg/mL. It also gave an MIC (S. aureus; S. aureus MW2 mutant SP2-65 (yjbH, dltB, manA, MW1685)) of 0.25 µg/mL, an MIC (S. aureus; S. aureus MW2 mutant SP2-100 (yjbH dltB, manA, MW1685)) of 0.25 µg/mL and an MIC (S. aureus; S. aureus MW2 serial passage culture SP1-1 (no mutated gene)) of 1 µg/mL. For the same compound, the MIC (S. aureus; S. aureus MW2 serial passage culture SP2-1 (no mutated gene)) was 1 µg/mL, the Minimum inhibitory concentration (S. aureus; S. aureus VRS1) was over 64 µg/mL and the “reduction of MRSA CFUs in the deep-seated mouse thigh infection model” value [1] was “unable to significantly reduce”. For the same compound, the “viability of MW2 persister cells, single agent” value [2] was “did not significantly affect”, the Minimum inhibitory concentration (P. aeruginosa; P. aeruginosa PA14) was 2 µg/mL and the Minimum inhibitory concentration (K. pneumonia WGLW2; K. pneumonia WGLW2) was 1 µg/mL. It also gave a Minimum inhibitory concentration (E. faecium; E. faecium C68) of over 64 µg/mL, a Minimum inhibitory concentration (E. faecium; E. faecium D14) of 32 µg/mL and a Minimum inhibitory concentration (E. faecium; E. faecium D24) of over 64 µg/mL. For the same compound, the Minimum inhibitory concentration (E. faecium; E. faecium D25) was 32 µg/mL, the Minimum inhibitory concentration (E. faecium; E. faecium D29) was 64 µg/mL and the Minimum inhibitory concentration (E. faecium; E. faecium E007) was over 64 µg/mL. It also gave a Minimum inhibitory concentration (E. faecium; E. faecium WB213) of 32 µg/mL and a Minimum inhibitory concentration (E. faecium; E. faecium WC176) of 64 µg/mL.
